This assay can be described thus: Food intake test in food-deprived rats (anorectic activity). It counts as in vivo, Male Sprague-Dawley derived rats. The note with it: rat, 32.0 mg/kg i.g., 24 h food-deprived, food given 30 min after dosing; for Food Intake, % of control, 1 Hr.: 1 hour intake; for Food Intake, % of control, 2 Hr.: 2 hour intake; for Food Intake, % of control, 6 Hr.: 6 hour intake. Here is the method: Male Sprague-Dawley derived rats, Charles River Breeders (Portage, MI), weighing between 200-400 grams at the time of testing, were employed in the food intake studies and water intake studies. The rats were housed individually and kept on a 12 hour light-dark-light cycle. The room temperature ranged between 23°-25° C. The rats employed in food intake testing were food deprived on the day preceding testing and were divided into experimental groups that were matched on the basis of average daily food intake and body weight. At approximately 24 hour post-deprivation, the rats were administered a test sample containing as the active ingredient a compound of the present invention. All test samples employed herein were prepared and homogenized in a vehicle of normal saline (to which a few drops of PG/Tween 80 was added). The test samples were administered at an injection volume of 2 ml/kg, unless otherwise stated. Thirty minutes following administration of the test samples, pre-weighed food jars containing ground meal were placed in the rats' cages. (Prior to testing the rats were given ground meal for a minimum of 3 days to familiarize the rats with this food.) After 1, 2 and 6 hours of food access, the jars were removed, weighed and returned to the rats' cages providing a 1, 2 and 6 hours intake measurement. […] The results obtained are represented in Table I as a percent of control values. A student t test was used for making statistical comparisons, and the p-values are based upon two-tailed comparisons. The compound employed as the active ingredient on the test sample is indicated by the example number which describes its preparation.

These results are taken from patent US4661592A, “4H-pyrimido[2,1-a]isoquinolin-4-one derivatives” (G. D. Searle & Co., priority 1984, dated 1987).

With `O=c1c(CO)cnc2c3ccccc3ccn12` [Example 1, 3-(hydroxymethyl)-4H-pyrimido [2,1-a]isoquinolin-4-one], the “Food Intake, % of control, 1 Hr.” value is 61.8 % of control; the “Food Intake, % of control, 2 Hr.” value is on record as 77.4 % of control; the “Food Intake, % of control, 6 Hr.” value was 90.4 % of control.

On to `CC(=O)OCc1cnc2c3ccccc3ccn2c1=O` [Example 2, 3-(hydroxymethyl)-4H-pyrimido[2,1-a]isoquinolin-4-one acetate], for which the “Food Intake, % of control, 1 Hr.” value was 51.4 % of control; the “Food Intake, % of control, 2 Hr.” value is 67.1 % of control; the “Food Intake, % of control, 6 Hr.” value is recorded as 89.8 % of control.

Regarding `Cl.Cl.NCc1cnc2c3ccccc3ccn2c1=O` [Example 3, 3-(aminomethyl)-4H-pyrimido[2,1-a]isoquinolin-4-one, dihydrochloride], the “Food Intake, % of control, 1 Hr.” value is recorded as 51.3 % of control; the “Food Intake, % of control, 2 Hr.” value is on record as 71.4 % of control; the “Food Intake, % of control, 6 Hr.” value is listed as 92.3 % of control.

`CCN(CC)CCOCc1cnc2c3ccccc3ccn2c1=O.Cl.Cl` [Example 4, 3-[[2-(diethylamino)ethoxy]methyl]-4H-pyrimido[2,1-a]isoquinolin-4-one dihydrochloride]: the “Food Intake, % of control, 1 Hr.” value was 70.8 % of control; the “Food Intake, % of control, 2 Hr.” value is 80.8 % of control; the “Food Intake, % of control, 6 Hr.” value is given as 90.9 % of control.

For the compound `CN(C)CCNC(=O)c1cnc2c3ccccc3ccn2c1=O` [Example 5], the “Food Intake, % of control, 1 Hr.” value was 82.4 % of control; the “Food Intake, % of control, 2 Hr.” value is reported as 87.5 % of control; the “Food Intake, % of control, 6 Hr.” value is reported as 88.3 % of control.
